Experimental data: US9133204B2, “5-membered heterocyclic amides and related compounds” (H. Lundbeck A/S, priority 2007, dated 2015)

target: T1, P2X7 receptor (Homo sapiens, UniProt Q99572); assay: High throughput P2X7 calcium mobilization assay (Example 4A); type: cell-based; conditions: SH-SY5Y cells; 50% decrease in fluorescence response of cells exposed to 80 μM BzATP; Table I
T1 construct: host or cells: SH-SY5Y
T1 sequence (Q99572 1-595): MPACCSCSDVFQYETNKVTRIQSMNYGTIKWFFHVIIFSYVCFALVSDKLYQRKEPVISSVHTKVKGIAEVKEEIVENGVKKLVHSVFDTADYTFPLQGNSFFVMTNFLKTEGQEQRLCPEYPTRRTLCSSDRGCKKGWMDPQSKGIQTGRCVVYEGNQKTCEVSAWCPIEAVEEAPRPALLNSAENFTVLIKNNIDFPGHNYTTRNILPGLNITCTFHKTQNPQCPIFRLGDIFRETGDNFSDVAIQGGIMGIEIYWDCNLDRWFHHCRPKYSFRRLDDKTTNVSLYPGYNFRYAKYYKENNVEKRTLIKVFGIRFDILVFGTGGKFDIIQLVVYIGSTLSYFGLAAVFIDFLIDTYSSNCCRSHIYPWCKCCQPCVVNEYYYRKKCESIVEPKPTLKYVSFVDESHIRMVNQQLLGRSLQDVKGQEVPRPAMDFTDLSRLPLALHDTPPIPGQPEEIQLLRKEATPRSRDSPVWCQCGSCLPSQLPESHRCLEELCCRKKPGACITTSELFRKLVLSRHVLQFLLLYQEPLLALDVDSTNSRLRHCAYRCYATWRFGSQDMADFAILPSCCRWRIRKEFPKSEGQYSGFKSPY
Procedure, shortened: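 SH-SY5Y cells loaded with 2.3 μM Fluo-4 AM for 1 h at 37 °C, then preincubated 1 h at room temperature with test compound (final 1–2500 nM) in low-sodium sucrose buffer, pH 7.4. Antagonism measured against 80 μM BzATP (about EC50) as peak FLIPR calcium fluorescence over 2 min, corrected by no-agonist background.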

IC50, ≤ 2 µM:
O=C(NCC1(N2CCNCC2)CCCCC1)c1sc(-c2ncccn2)nc1C(F)(F)F [Compound 313, N-[(1-piperazin-1-ylcyclohexyl)methyl]-2-pyrimidin-2-yl-4-(trifluoromethyl)-1,3-thiazole-5-carboxamide]
O=C(NCC(c1ccc(Cl)cc1)N1CCOCC1)c1sc(-c2ncccn2)nc1C(F)(F)F (stereo not drawn) [Compound 314, N-[2-(4-chlorophenyl)-2-morpholin-4-ylethyl]-2-pyrimidin-2-yl-4-(trifluoromethyl)-1,3-thiazole-5-carboxamide]
CCc1nc(-c2ncccn2)sc1C(=O)NCC(c1ccc(C(F)(F)F)cc1)N(C)C(C)C (stereo not drawn) [Compound 315, 4-ethyl-N-{2-[isopropyl(methyl)amino]-2-[4-(trifluoromethyl)phenyl]ethyl}-2-pyrimidin-2-yl-1,3-thiazole-5-carboxamide]
O=C(NCC1(c2cccnc2)CCCCC1)c1sc(-c2cnccn2)nc1C(F)(F)F [Compound 316, 2-pyrazin-2-yl-N-[(1-pyridin-3-ylcyclohexyl)methyl]-4-(trifluoromethyl)-1,3-thiazole-5-carboxamide]
O=C(NCC1(c2cccnc2)CCCCC1)c1sc(-c2nccs2)nc1C(F)(F)F [Compound 317, N-[(1-pyridin-3-ylcyclohexyl)methyl]-4-(trifluoromethyl)-2,2′-bi-1,3-thiazole-5-carboxamide]
O=C(NCC1(c2cccnc2)CCCCC1)c1sc(-c2ccc3[nH]ccc3c2)nc1C(F)(F)F [Compound 318, 2-(1H-indol-5-yl)-N-[(1-pyridin-3-ylcyclohexyl)methyl]-4-(trifluoromethyl)-1,3-thiazole-5-carboxamide]
O=C(NCC1(c2cccnc2)CCCCC1)c1sc(-c2cccc3cccnc23)nc1C(F)(F)F [Compound 319, N-[(1-pyridin-3-ylcyclohexyl)methyl]-2-quinolin-8-yl-4-(trifluoromethyl)-1,3-thiazole-5-carboxamide]
CC(C)CC(CNC(=O)c1sc(-c2ncccn2)nc1C(F)(F)F)c1cccnc1 (stereo not drawn) [Compound 320, N-(4-methyl-2-pyridin-3-ylpentyl)-2-pyrimidin-2-yl-4-(trifluoromethyl)-1,3-thiazole-5-carboxamide]
O=C(NCC1(c2cccnc2)CCCCC1)c1sc(-c2ccccn2)nc1C(F)(F)F [Compound 321, 2-pyridin-2-yl-N-[(1-pyridin-3-ylcyclohexyl)methyl]-4-(trifluoromethyl)-1,3-thiazole-5-carboxamide]
